In PubChem BioAssay (NCI):
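Where inhibition never reached the appropriate level, the endpoint shown equals the highest concentration tested. Otherwise, values were interpolated linearly from a five-concentration, 48-hour dose response in 96-well plates. TGI denotes the concentration required for complete inhibition of growth.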

Legend:
Assay in all cases: NCI anticancer screen, dose series, 48 h
HS 578T breast = test system: HS 578T breast
HCC-2998 colon = test system: HCC-2998 colon
SK-MEL-28 melanoma = test system: SK-MEL-28 melanoma
SW-620 colon = test system: SW-620 colon
U251 CNS = test system: U251 CNS
HL-60(TB) leukemia = test system: HL-60(TB) leukemia
SK-OV-3 ovarian = test system: SK-OV-3 ovarian
MDA-MB-231 breast = test system: MDA-MB-231 breast
UO-31 renal = test system: UO-31 renal
SNB-75 CNS = test system: SNB-75 CNS

Structure (SMILES) | TGI (HS 578T breast) | TGI (HCC-2998 colon) | TGI (SK-MEL-28 melanoma) | TGI (SW-620 colon) | TGI (U251 CNS) | TGI (HL-60(TB) leukemia) | TGI (SK-OV-3 ovarian) | TGI (MDA-MB-231 breast) | TGI (UO-31 renal) | TGI (SNB-75 CNS)
O=C(O)CCN(CCC(=O)O)c1ccc(/C=C2\SC(=S)NC2=O)cc1 | > 100 µM | > 100 µM | > 100 µM | > 100 µM | > 100 µM | > 100 µM | > 100 µM | > 100 µM | > 100 µM | > 100 µM
Cc1c(O)c(C)c2c(C)cn(C(=O)C(C)(C)C)c2c1C | 77.2 µM | 96.6 µM | 28.7 µM | 74.4 µM | 69 µM | > 100 µM | 42.8 µM | 28.5 µM | 79.6 µM | 34.1 µM
N#C/C(N)=C(\C#N)NC=NCc1ccccc1 | > 100 µM | > 100 µM | > 100 µM | > 100 µM | > 100 µM | > 100 µM | > 100 µM | > 100 µM | > 100 µM | > 100 µM
O=S(=O)(O)c1ccc(N=Nc2ccc(N=Nc3c(O)ccc4ccccc34)cc2)cc1 | > 100 µM | > 100 µM | > 100 µM | > 100 µM | > 100 µM | > 100 µM | > 100 µM | > 100 µM | > 100 µM | > 100 µM
COc1ccc(C(OCC2OC(n3cc(C)c(=O)[nH]c3=O)CC2n2cc(Cn3cc(Br)c(=O)[nH]c3=O)nn2)(c2ccccc2)c2ccccc2)cc1 (stereo not given) | > 100 µM | > 100 µM | > 100 µM | > 100 µM | > 100 µM | 5.09 µM | > 100 µM | > 100 µM | > 100 µM | > 100 µM
C[C@@H]1CCC2[C@@H](C)[C@@H](OCCO[C@H]3OC4O[C@@]5(C)CCC6[C@H](C)CCC([C@H]3C)[C@@]46OO5)OC3O[C@@]4(C)CCC1[C@]32OO4 (stereo not given in full) | > 100 µM | > 100 µM | > 100 µM | > 100 µM | > 100 µM | > 100 µM | > 100 µM | > 66.2 µM | > 100 µM | > 100 µM
CN1C(=O)C(CC=O)(C(C)(C)C)c2ccccc21 (stereo not given) | > 100 µM | > 100 µM | > 100 µM | > 100 µM | > 100 µM | > 100 µM | > 100 µM | > 100 µM | > 100 µM | > 100 µM
CC12CC(C#N)(C#N)C(C#N)(CO1)C(=N)O2 (stereo not given) | > 100 µM | > 100 µM | > 100 µM | > 100 µM | > 100 µM | > 100 µM | > 100 µM | > 100 µM | > 100 µM | > 100 µM
O=[N+]([O-])c1cc2c(c3nonc13)OCCCCO2 | 67.7 µM | 35.5 µM | 22.5 µM | 20.7 µM | 45.5 µM | 5.15 µM | 65 µM | 12.1 µM | 19.7 µM | 22.7 µM
COc1ccc(C(OC(C)=O)C2C(=C(C#N)C#N)c3ccccc3C2=C(C#N)C#N)cc1 (stereo not given) | 91.6 µM | 59.9 µM | > 100 µM | > 100 µM | > 100 µM | 41.9 µM | 62.8 µM | > 100 µM | 75.1 µM | > 100 µM
O=C(NCCCN(CCCCN(CCCNC(=O)C(F)(F)F)CCCc1ccccc1)CCCc1ccccc1)C(F)(F)F | 4.2 µM | 3.27 µM | 3.16 µM | 3.93 µM | 3.56 µM | 23.9 µM | 5.6 µM | 3.11 µM | 2.52 µM | 2.56 µM
CCOC(=O)C1=C(N)Oc2ccc(Br)cc2C1C(C#N)C(=O)OCC (stereo not given) | 61 µM | 32.7 µM | 32.4 µM | 43.2 µM | 33.8 µM | > 100 µM | 47.1 µM | 55.9 µM | 35.8 µM | > 100 µM
CCCCn1c(C)c2c(c1C)C(=O)N(CC(O)CN1CCc3ccccc3C1)C2=O (stereo not given) | > 100 µM | > 100 µM | > 100 µM | > 100 µM | > 100 µM | > 100 µM | > 100 µM | > 100 µM | > 100 µM | > 100 µM
CCOC(=O)c1cc(C2(O)CCN(CC(C)CC)C2=O)c(-c2cc(C)no2)[nH]1 (stereo not given) | > 100 µM | > 100 µM | > 100 µM | > 100 µM | > 100 µM | > 100 µM | > 100 µM | > 100 µM | > 100 µM | > 100 µM
CC(C)C1=C(Cc2ccccc2)C(=O)O/C1=C\c1cc(Cl)c(O)c(Cl)c1 | 67.7 µM | 42.3 µM | 35.9 µM | 44.6 µM | 31.8 µM | 41.7 µM | 39.7 µM | 33.8 µM | 27.1 µM | 36.8 µM
CN1CCN(CN2C(=O)C3C4C=CC(C3C2=O)C2C(=O)N(CN3CCN(C)CC3)C(=O)C42)CC1 (stereo not given) | > 100 µM | > 100 µM | > 58 µM | 7.58 µM | > 100 µM | 61.6 µM | > 100 µM | > 100 µM | > 100 µM | > 100 µM
